Among the data in PubChem BioAssay AID602479 (National Center for Advancing Translational Sciences (NCATS), 2012) are microsomal half-life values, retold here.

In this data set the test system is mouse liver microsomes, metabolic half-life. As to the kind of experiment: qHTS Assay for Inhibitors of Bacillus subtilis Sfp phosphopantetheinyl transferase (PPTase): Mouse Liver Microsome Stability (Half Time). From the text:
PPTases are responsible for the activation of a variety of pathogen-associated virulence factors. Among these compounds are toxins such as mycolactone from Mycobacterium ulcerans, siderophores such as vibriobactin from Vibrio cholerae or mycobactin from Mycobacterium tuberculosis, as well as the mycolic acids which form the waxy cell wall of Mycobacteria. The biosyntheses of these natural products are considered attractive targets for drug design. After a large qHTS and several follow-up assays, a small molecule was identified and this in vitro ADME assay serves to better characterize its properties.
This bioassay provides profiling data on mouse liver microsome stability.
NIH Chemical Genomics Center [NCGC]
NIH Molecular Libraries Probe Centers Network [MLPCN]
Assay Submitter (PI): Michale Burkart, University of California, San Diego
1uM of compound in incubated in mouse liver microsome; the reference compound is ketanserin. Compounds are incubated at 37 degrees C for different time periods: 0, 5, 15, 30, 45, and 60 minutes. Samples are analyzed with LC-MS/MS.
On the technique in general: qHTS replaces the single test concentration by a dilution series.

Consider `COc1ccnc(NC(=S)N2CCN(c3ncc(C(F)(F)F)cc3Cl)CC2)c1`, for which the microsomal half-life is 49.5 min.
